We go through 25 molecules from patent publication US20240065271A1, “MIXTURES AND COMPOSITIONS COMPRISING FUSARICIDIN A, FUSARICIDIN B AND FUNGICIDES” (BASF SE, priority 2020, published 2024).

Experiment [1] has as its system Pyricularia oryzae. Kind of experiment: microbe, parasite or virus in culture. It is filed as cell-based. As to conditions: for Observed efficacy: single active.
In experiment [2] the test system is Colletotrichum orbiculare. Briefly: Activity against Colletotrichum orbiculare in the microtiterplate test (COLLLA). It is filed as cell-based. The following applies: single active.
For experiment [3], the system named is Sclerotinia sclerotiorum. Kind of experiment: Activity against Sclerotinia sclerotiorum in the microtiterplate test (SCLESC). It is filed as cell-based. As to conditions: single active.
Experiment [4] deals with Botrytis cinerea. Briefly: Activity against grey mold Botrytis cinerea in the microtiterplate test (BOTRCI). It is filed as cell-based. As to conditions: single active.
Experiment [5] has as its system Staphylococcus aureus. As to conditions: clinically relevant fungi and gram-positive bacteria such a Staphylococcus aureus; cited from earlier work.
The mark [6] stands for this setting: Pyricularia oryzae, 168 h, read-out: Observed efficacy.

Molecule `CCCCCCCCc1c(CC)nc2ncnn2c1N` [Ametoctradin, ametoctradin] registered an Observed efficacy in experiment [1] (4 ppm) of 12. `Cc1c(Br)c2ccc(F)cc2n1S(=O)(=O)c1ncn(S(=O)(=O)N(C)C)n1` [Amisulbrom, amisulbrom]: the values for the Observed efficacy in experiment [1] (1 ppm) and in experiment [1] (4 ppm) were 3 and 11, respectively. For the molecule `CC(C)[C@H](NC(=O)O)C(=O)N[C@H](C)c1nc2ccc(F)cc2s1` [Benthiavalicarb, benthiavalicarb], the Observed efficacy in experiment [1] (4 ppm) is recorded as 0; in experiment [1] (16 ppm), 8. As for `O=C(Nc1ccccc1-c1ccc(Cl)cc1)c1cccnc1Cl` [Boscalid, boscalid], the inhibition of growth at 1 ppm in experiment [1] (setting [6]) was 5%. As for `Cc1ccc(-c2c(Cl)nc(C#N)n2S(=O)(=O)N(C)C)cc1` [Cyazofamid, cyazofamid], in experiment [1] (setting [6]), the inhibition of growth at 0.25 ppm was found to be 6% and the inhibition of growth at 1 ppm is 16%.

`CCNC(=O)NC(=O)/C(C#N)=N/OC` [Cymoxanil, cymoxanil]: in experiment [1] (setting [6]), the inhibition of growth at 16 ppm is 3% and the inhibition of growth at 63 ppm came to 11%. Regarding `N#Cc1sc2c(=O)c3ccccc3c(=O)c=2sc1C#N` [Dithianon, dithianon], the results for the Observed efficacy in experiment [2] (0.063 ppm) and in experiment [3] (1 ppm) were 0 and 57, respectively. Take `O=[N+]([O-])c1cc(C(F)(F)F)c(Cl)c([N+](=O)[O-])c1Nc1ncc(C(F)(F)F)cc1Cl` [Fluazinam, fluazinam]: in experiment [1] (setting [6]), the inhibition of growth at 0.063 ppm stood at 8%. Regarding `O=C(NCc1ncc(C(F)(F)F)cc1Cl)c1c(Cl)cccc1Cl` [Fluopicolid, fluopicolide], the Observed efficacy in experiment [1] (1 ppm) was determined as 2. For the molecule `CO/N=C(/C1=NOCCO1)c1ccccc1Oc1ncnc(Oc2ccccc2Cl)c1F` [Fluoxastrobin, fluoxastrobin], in experiment [1] (setting [6]), the inhibition of growth at 0.016 ppm came to 8%. For the molecule `Cn1cc(C(=O)Nc2ccccc2-c2cc(F)c(F)c(F)c2)c(C(F)F)n1` [Fluxapyroxad, fluxapyroxad], the Observed efficacy in experiment [1] (0.016 ppm) was found to be 3. For `Cc1ccc(C(C)NC(=O)[C@@H](NC(=O)OC(C)C)C(C)C)cc1` (stereo partly shown) [Iprovalicarb, iprovalicarb], the values for the Observed efficacy in experiment [1] (1 ppm) and in experiment [1] (4 ppm) were 8 and 17, respectively. As to `C#CCOc1ccc(CCNC(=O)C(OCC#C)c2ccc(Cl)cc2)cc1OC` (stereo not shown) [Mandipropamid, mandipropamid], the figures for the Observed efficacy in experiment [1] (16 ppm), in experiment [3] (63 ppm) and in experiment [4] (63 ppm) were 7, 29 and 16, respectively. Turning to `Cc1cccc(-n2nnn(C)c2=O)c1COc1ccn(-c2ccc(Cl)cc2)n1` [Methyltetraprol, metyltetraprole], the Observed efficacy stood at 19 in experiment [2] (0.063 ppm) and 16 in experiment [1] (0.016 ppm).

With `COc1cc(C)c(C(=O)c2c(OC)ccc(Br)c2C)c(OC)c1OC` [Metrafenon, metrafenone], the inhibition of growth at 0.25 ppm in experiment [1] (setting [6]) came to 3%. In experiment [4] (16 ppm), `Cc1cc(C(F)(F)F)nn1CC(=O)N1CCC(c2nc(C3=NOC(c4c(F)cccc4F)C3)cs2)CC1` (stereo not shown) [Oxathiapiprolin, oxathiapiprolin] registered an Observed efficacy of 11. For the molecule `COc1cc(C)c(C(=O)c2c(OC)ncc(Cl)c2C)c(OC)c1OC` [Pyriofenon, pyriofenone], the Observed efficacy in experiment [2] (16 ppm) was found to be 20; in experiment [1] (4 ppm), 6; in experiment [1] (16 ppm), 18; in experiment [4] (16 ppm), 12.

In experiment [2] (16 ppm), `CCCN(CC)CC1COC2(CCC(C(C)(C)C)CC2)O1` (stereo not shown) [Spiroxamin, spiroxamine] displayed an Observed efficacy of 8. In experiment [1] (setting [6]), the inhibition of growth at 4 ppm was 3% and the inhibition of growth at 16 ppm was 17%. For `CON=C(C(=O)OC)c1ccccc1CON=C(C)c1cccc(C(F)(F)F)c1` [Trifloxystrobin, trifloxystrobin], the Observed efficacy in experiment [3] (0.063 ppm) turned out to be 41; in experiment [4] (0.063 ppm) it was 0. For the molecule `COC(=O)CC(NC(=O)[C@@H](NC(=O)OC(C)C)C(C)C)c1ccc(Cl)cc1` (stereo partly shown) [Valifenalat, valifenalate], the Observed efficacy in experiment [1] (4 ppm) is on record as 1.

For `CCC(C)(NC(=O)c1cc(Cl)c(C)c(Cl)c1)C(=O)CCl` (stereo not shown) [Zoxamid, zoxamide], the Observed efficacy is on record as 0 in experiment [2] (1 ppm), 0 in experiment [3] (1 ppm) and 11 in experiment [4] (1 ppm). In addition, the inhibition of growth at 4 ppm in experiment [1] (setting [6]) came to 39%. Molecule fosetyl-aluminium gave an Observed efficacy in experiment [1] (4 ppm) of 4. As for fusaricidin A, the MIC value range in experiment [5] is 0.78 to 3.12 µg/mL.

mancozeb displayed an Observed efficacy in experiment [1] (0.25 ppm) of 5. As for metiram, the Observed efficacy in experiment [1] (16 ppm) stood at 17.
